The supplement of paper PMC10307832

Assays:
Test in all cases: relative viability (nuclei count vs DMSO), 5 days (fraction); higher = more cells survive
201T = tested on: 201T
In short: (§1)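 Five library-drug doses in √10 steps were combined with a fixed anchor-drug dose, or a single drug was given alone, by pin tool to lung cancer cell lines in 1536-well plates the day after seeding. Nuclei were stained and counted after 5 days. Relative viability is the nuclei count in treated wells over that in vehicle wells, taken as the median of duplicate plates.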

ABC-1 = tested on: ABC-1
In short: as §1

BEN = tested on: BEN
In short: as §1

HCC-366 = tested on: HCC-366
In short: as §1

HCC-44 = tested on: HCC-44
In short: as §1

HCC-78 = tested on: HCC-78
In short: as §1

LK-2 = tested on: LK-2
In short: as §1

LOU-NH91 = tested on: LOU-NH91
In short: as §1

NCI-H1355 = tested on: NCI-H1355
In short: as §1

NCI-H1650 = tested on: NCI-H1650
In short: as §1

NCI-H1666 = tested on: NCI-H1666
In short: as §1

NCI-H1734 = tested on: NCI-H1734
In short: as §1

NCI-H1755 = tested on: NCI-H1755
In short: as §1

NCI-H2009 = tested on: NCI-H2009
In short: as §1

NCI-H2228 = tested on: NCI-H2228
In short: as §1

NCI-H2347 = tested on: NCI-H2347
In short: as §1

NCI-H2405 = tested on: NCI-H2405
In short: as §1

NCI-H358 = tested on: NCI-H358
In short: as §1

NCI-H520 = tested on: NCI-H520
In short: as §1

NCI-H727 = tested on: NCI-H727
In short: as §1

NCI-H838 = tested on: NCI-H838
In short: as §1

SW 1573 = tested on: SW 1573
In short: as §1

UMC-11 = tested on: UMC-11
In short: as §1

SMILES: Cc1cnc(-c2cnc(NCCNc3ccc(C#N)cn3)nc2-c2ccc(Cl)cc2Cl)[nH]1 + O=C(c1cc(Cc2n[nH]c(=O)c3ccccc23)ccc1F)N1CCN(C(=O)C2CC2)CC1 [Olaparib] (partner 8 µM)
- relative viability (201T; first compound 0.08 µM): 0.848
- relative viability (201T; first compound 0.8 µM): 0.81
- relative viability (201T; first compound 2.53 µM): 0.834
- relative viability (ABC-1; first compound 0.08 µM): 0.788
- relative viability (ABC-1; first compound 0.253 µM): 0.834
- relative viability (ABC-1; first compound 0.8 µM): 0.78
- relative viability (ABC-1; first compound 2.53 µM): 0.763
- relative viability (BEN; first compound 0.08 µM): 1.17
- relative viability (BEN; first compound 0.253 µM): 1.04
- relative viability (BEN; first compound 0.8 µM): 0.973
- relative viability (BEN; first compound 2.53 µM): 0.978
- relative viability (HCC-366; first compound 0.08 µM): 0.375
- relative viability (HCC-366; first compound 0.253 µM): 0.297
- relative viability (HCC-366; first compound 0.8 µM): 0.338
- relative viability (HCC-44; first compound 0.08 µM): 0.934
- relative viability (HCC-44; first compound 0.253 µM): 0.946
- relative viability (HCC-44; first compound 0.8 µM): 1.04
- relative viability (HCC-44; first compound 2.53 µM): 0.989
- relative viability (HCC-78; first compound 0.08 µM): 0.865
- relative viability (HCC-78; first compound 0.253 µM): 0.588
- relative viability (HCC-78; first compound 0.8 µM): 0.737
- relative viability (HCC-78; first compound 2.53 µM): 0.834
- relative viability (LK-2; first compound 0.08 µM): 0.728
- relative viability (LK-2; first compound 0.253 µM): 0.543
- relative viability (LK-2; first compound 0.8 µM): 0.611
- relative viability (LK-2; first compound 2.53 µM): 0.78
- relative viability (LOU-NH91; first compound 0.08 µM): 0.94
- relative viability (LOU-NH91; first compound 0.253 µM): 0.868
- relative viability (LOU-NH91; first compound 0.8 µM): 0.962
- relative viability (LOU-NH91; first compound 2.53 µM): 0.877
- relative viability (NCI-H1355; first compound 0.08 µM): 0.793
- relative viability (NCI-H1355; first compound 0.253 µM): 0.648
- relative viability (NCI-H1355; first compound 0.8 µM): 0.749
- relative viability (NCI-H1355; first compound 2.53 µM): 0.716
- relative viability (NCI-H1650; first compound 0.08 µM): 0.724
- relative viability (NCI-H1650; first compound 0.253 µM): 0.737
- relative viability (NCI-H1650; first compound 0.8 µM): 0.808
- relative viability (NCI-H1650; first compound 2.53 µM): 0.868
- relative viability (NCI-H1666; first compound 0.08 µM): 0.775
- relative viability (NCI-H1666; first compound 0.253 µM): 0.732
- relative viability (NCI-H1666; first compound 0.8 µM): 0.765
- relative viability (NCI-H1666; first compound 2.53 µM): 0.781
- relative viability (NCI-H1734; first compound 0.08 µM): 0.635
- relative viability (NCI-H1734; first compound 0.253 µM): 0.622
- relative viability (NCI-H1734; first compound 0.8 µM): 0.644
- relative viability (NCI-H1734; first compound 2.53 µM): 0.516
- relative viability (NCI-H1755; first compound 0.08 µM): 0.941
- relative viability (NCI-H1755; first compound 0.253 µM): 0.819
- relative viability (NCI-H1755; first compound 0.8 µM): 0.804
- relative viability (NCI-H1755; first compound 2.53 µM): 0.869
- relative viability (NCI-H2009; first compound 0.08 µM): 0.746
- relative viability (NCI-H2009; first compound 0.253 µM): 0.661
- relative viability (NCI-H2009; first compound 0.8 µM): 0.697
- relative viability (NCI-H2009; first compound 2.53 µM): 0.605
- relative viability (NCI-H2228; first compound 0.08 µM): 0.56
- relative viability (NCI-H2228; first compound 0.253 µM): 0.332
- relative viability (NCI-H2228; first compound 0.8 µM): 0.732
- relative viability (NCI-H2228; first compound 2.53 µM): 0.419
- relative viability (NCI-H2347; first compound 0.08 µM): 0.623
- relative viability (NCI-H2347; first compound 0.253 µM): 0.495
- relative viability (NCI-H2347; first compound 0.8 µM): 0.663
- relative viability (NCI-H2347; first compound 2.53 µM): 0.587
- relative viability (NCI-H2405; first compound 0.08 µM): 0.882
- relative viability (NCI-H2405; first compound 0.253 µM): 0.771
- relative viability (NCI-H2405; first compound 0.8 µM): 0.88
- relative viability (NCI-H2405; first compound 2.53 µM): 0.661
- relative viability (NCI-H358; first compound 0.08 µM): 0.578
- relative viability (NCI-H358; first compound 0.253 µM): 0.522
- relative viability (NCI-H358; first compound 0.8 µM): 0.555
- relative viability (NCI-H358; first compound 2.53 µM): 0.517
- relative viability (NCI-H520; first compound 0.08 µM): 0.366
- relative viability (NCI-H520; first compound 0.253 µM): 0.3
- relative viability (NCI-H520; first compound 0.8 µM): 0.354
- relative viability (NCI-H520; first compound 2.53 µM): 0.311
- relative viability (NCI-H727; first compound 0.08 µM): 0.69
- relative viability (NCI-H727; first compound 0.253 µM): 0.768
- relative viability (NCI-H727; first compound 0.8 µM): 0.711
- relative viability (NCI-H727; first compound 2.53 µM): 0.735
- relative viability (NCI-H838; first compound 0.08 µM): 0.756
- relative viability (NCI-H838; first compound 0.253 µM): 0.768
- relative viability (NCI-H838; first compound 0.8 µM): 0.796
- relative viability (NCI-H838; first compound 2.53 µM): 0.75
- relative viability (SW 1573; first compound 0.08 µM): 0.532
- relative viability (SW 1573; first compound 0.253 µM): 0.406
- relative viability (SW 1573; first compound 0.8 µM): 0.494
- relative viability (SW 1573; first compound 2.53 µM): 0.233
- relative viability (UMC-11; first compound 0.08 µM): 0.413
- relative viability (UMC-11; first compound 0.253 µM): 0.997
- relative viability (UMC-11; first compound 0.8 µM): 0.343
- relative viability (UMC-11; first compound 2.53 µM): 0.352
